From patent publication US20180343865A1, “HERBICIDAL COMPOSITIONS COMPRISING ISOXAZOLO[5,4-B]PYRIDINES” (BASF SE, priority 2015, published 2018)

Legend:
Assay type in all cases: in vivo
Amaranthus palmeri = experiment: Greenhouse postemergence herbicidal activity on AMAPA, 20 DAT; details: Amaranthus palmeri, post-emergence, 480 h
Protocol: (§1) For the post emergence treatment, the plants were first grown to the 2 leaf station (GS 12) and applied at GS 12-19 depending on the species. The herbicidal compositions were suspended or emulsified in water as distribution medium and sprayed using finely distributing nozzles.
(§2) The plants have been cultivated due to their individual requirements at 10 to 25° C. and. 20 to 35° C. The plants were irrigated due to their necessity.
(§3) The respective stated components A), were formulated as a 5% by weight strength emulsion concentrate containing wettol EM 31 20% and Cyclohexanone 80%. The respective stated components B), were formulated as either emulsifiable concentrates (EC), soluble liquids (SL), suspension concentrates (SC) or soluble granules (SG) as indicated in the table below. Component A, component B and the solvent system are introduced into the spray liquor used for applying the active compound. In the examples, the solvent used was water containing 1% Dash (Agnique ME 181 37.5%, Lutensit A-EP 22.5%, and Oleic Acid 5%) and 2% ammonium suflate.
(§4) In the following experiments, the herbicidal activity for the individual herbicide compounds (solo and mixture applications), the herbicidal succession was assessed 20 days after treatment (DAT). The evaluation for the damage on undesired weeds caused by the chemical compositions was carried out using a scale from 0 to 100%, compared to the untreated control plants. Here, 0 means no damage and 100 means complete destruction of the plants. The plants used in the greenhouse experiments belonged to the following species:
(§5) The value E, which corresponds to the effect (in %) that is to be expected if the activity of the individual compounds is additive, was calculated using the method of S. R. Colby (1967) “Calculating synergistic and antagonistic responses of herbicide combinations”, Weeds 15, p. 22 ff. Colby calculation for 2 way mixtures:
(§6) where: • X=effect in percent using herbicide A at an application rate a; • Y=effect in percent using herbicide B at an application rate b; • E=expected effect (in %) of A+B at application rates a+b
(§7) If the value observed in this manner is higher than the value E calculated according to Colby, a synergistic effect is present.

Ipomoea hederacea = experiment: Greenhouse postemergence herbicidal activity on IPOHE, 20 DAT
Protocol: as §1, §2, §3, §4, §5, §6, §7

Galium aparine = experiment: Greenhouse postemergence herbicidal activity on GALAP, 20 DAT
Protocol: as §1, §2, §3, §4, §5, §6, §7

Sinapis arvensis = experiment: Greenhouse postemergence herbicidal activity on SINAR, 20 DAT; details: Mutarda arvensis, post-emergence, 480 h, read-out: % activity, solo bromoxynil
Protocol: as §1, §2, §3, §4, §5, §6, §7

Stellaria media = experiment: Greenhouse postemergence herbicidal activity on STEME, 20 DAT; details: Stellaria media, post-emergence, 480 h, STEME, postemergence, 20 DAT, read-out: % activity, solo bromoxynil
Protocol: as §1, §2, §3, §4, §5, §6, §7

Amaranthus retroflexus = experiment: Greenhouse postemergence herbicidal activity on AMARE, 20 DAT; details: AMARE, postemergence
Protocol: as §1, §2, §3, §4, §5, §6, §7

Abutilon theoprasti = experiment: Greenhouse postemergence herbicidal activity on ABUTH, 20 DAT
Protocol: as §1, §2, §3, §4, §5, §6, §7

Kochia scoparia = experiment: Greenhouse postemergence herbicidal activity on KCHSC, 20 DAT
Protocol: as §1, §2, §3, §4, §5, §6, §7

Chenopodium album = experiment: Greenhouse postemergence herbicidal activity on CHEAL, 20 DAT
Protocol: as §1, §2, §3, §4, §5, §6, §7

Polygonum convolvulus = experiment: Greenhouse postemergence herbicidal activity on POLCO, 20 DAT; details: POLCO, postemergence
Protocol: as §1, §2, §3, §4, §5, §6, §7

Structure (SMILES): N#Cc1cc(Br)c(O)c(Br)c1 [bromoxynil]
- inhibition at 10.5 g/ha (Amaranthus palmeri; 10.5 gai/ha, read-out: % activity, solo bromoxynil): 58%
- inhibition at 62.5 g/ha (Amaranthus palmeri; 62.5 gai/ha, read-out: % activity, solo bromoxynil): 83%
- inhibition at 10.5 g/ha (Ipomoea hederacea; Ipomoea hederacea, post-emergence, 480 h, 10.5 gai/ha, 20 DAT, read-out: % activity, solo bromoxynil): 65%
- inhibition at 21 g/ha (Ipomoea hederacea; Ipomoea hederacea, post-emergence, 480 h, 21 gai/ha, 20 DAT, read-out: % activity, solo bromoxynil): 65%
- inhibition at 125 g/ha (Ipomoea hederacea; Ipomoea hederacea, post-emergence, 480 h, 125 gai/ha, 20 DAT, read-out: % activity, solo bromoxynil): 72%
- inhibition at 62.5 g/ha (Galium aparine; Galium aparine, post-emergence, 480 h, 62.5 gai/ha, 20 DAT, read-out: % activity, solo bromoxynil): 89%
- inhibition at 125 g/ha (Galium aparine; Galium aparine, post-emergence, 480 h, 125 gai/ha, 20 DAT, read-out: % activity, solo bromoxynil): 70%
- inhibition at 62.5 g/ha (Sinapis arvensis; 62.5 gai/ha): 70%
- inhibition at 250 g/ha (Sinapis arvensis; 250 gai/ha): 95%
- inhibition at 62.5 g/ha (Stellaria media; 62.5 gai/ha): 0%
- inhibition at 125 g/ha (Stellaria media; 125 gai/ha): 0%
- inhibition at 250 g/ha (Stellaria media; 250 gai/ha): 0%
- inhibition at 10.5 g/ha (Amaranthus retroflexus; Amaranthus retroflexus, post-emergence, 480 h, 10.5 gai/ha, 20 DAT, read-out: % activity, solo bromoxynil): 28%
- inhibition at 125 g/ha (Amaranthus retroflexus; Amaranthus retroflexus, post-emergence, 480 h, 125 gai/ha, 20 DAT, read-out: % activity, solo bromoxynil): 80%
- inhibition at 250 g/ha (Amaranthus retroflexus; Amaranthus retroflexus, post-emergence, 480 h, 250 gai/ha, 20 DAT, read-out: % activity, solo bromoxynil): 92%
- inhibition at 10.5 g/ha (Abutilon theoprasti; Abutilon, post-emergence, 480 h, 10.5 gai/ha, 20 DAT, read-out: % activity, solo bromoxynil): 68%
- inhibition at 62.5 g/ha (Abutilon theoprasti; Abutilon, post-emergence, 480 h, 62.5 gai/ha, 20 DAT, read-out: % activity, solo bromoxynil): 73%
- inhibition at 125 g/ha (Abutilon theoprasti; Abutilon, post-emergence, 480 h, 125 gai/ha, 20 DAT, read-out: % activity, solo bromoxynil): 90%
- inhibition at 250 g/ha (Abutilon theoprasti; Abutilon, post-emergence, 480 h, 250 gai/ha, 20 DAT, read-out: % activity, solo bromoxynil): 90%
- inhibition at 62.5 g/ha (Kochia scoparia; Bassia scoparia, post-emergence, 480 h, 62.5 gai/ha, 20 DAT, read-out: % activity, solo bromoxynil): 50%
- inhibition at 10.5 g/ha (Chenopodium album; Chenopodium album, post-emergence, 480 h, 10.5 gai/ha, 20 DAT, read-out: % activity, solo bromoxynil): 53%
- inhibition at 21 g/ha (Chenopodium album; Chenopodium album, post-emergence, 480 h, 21 gai/ha, 20 DAT, read-out: % activity, solo bromoxynil): 80%
- inhibition at 62.5 g/ha (Chenopodium album; Chenopodium album, post-emergence, 480 h, 62.5 gai/ha, 20 DAT, read-out: % activity, solo bromoxynil): 45%
- inhibition at 125 g/ha (Chenopodium album; Chenopodium album, post-emergence, 480 h, 125 gai/ha, 20 DAT, read-out: % activity, solo bromoxynil): 85%
- inhibition at 250 g/ha (Chenopodium album; Chenopodium album, post-emergence, 480 h, 250 gai/ha, 20 DAT, read-out: % activity, solo bromoxynil): 95%

Structure (SMILES): Cc1c(C(=O)c2cnn(C)c2O)ccc(S(C)(=O)=O)c1C1=NOCC1 [topramezone]
- % activity, solo application topramezone (Ipomoea hederacea; 6.25 gai/ha): 23%
- % activity, solo application topramezone (Ipomoea hederacea; 12.5 gai/ha): 55%
- % activity, solo application topramezone (Ipomoea hederacea; 25 gai/ha): 75%
- % activity, solo application topramezone (Ipomoea hederacea; 50 gai/ha): 88%
- % activity, solo application topramezone (Galium aparine; 6.25 gai/ha): 70%
- % activity, solo application topramezone (Galium aparine; 12.5 gai/ha): 75%
- % activity, solo application topramezone (Galium aparine; 25 gai/ha): 70%
- % activity, solo application topramezone (Galium aparine; 50 gai/ha): 85%
- % activity, solo application topramezone (Amaranthus retroflexus; 25 gai/ha): 98%
- % activity, solo application topramezone (Polygonum convolvulus; 6.25 gai/ha): 25%
- % activity, solo application topramezone (Polygonum convolvulus; 12.5 gai/ha): 25%
- % activity, solo application topramezone (Polygonum convolvulus; 25 gai/ha): 68%
- % activity, solo application topramezone (Abutilon theoprasti; 6.25 gai/ha): 93%
- % activity, solo application topramezone (Kochia scoparia; 6.25 gai/ha): 20%
- % activity, solo application topramezone (Kochia scoparia; 12.5 gai/ha): 43%
- % activity, solo application topramezone (Kochia scoparia; 25 gai/ha): 75%
- % activity, solo application topramezone (Kochia scoparia; 50 gai/ha): 90%
- % activity, solo application topramezone (Chenopodium album; 6.25 gai/ha): 30%
- % activity, solo application topramezone (Chenopodium album; 12.5 gai/ha): 55%
- % activity, solo application topramezone (Chenopodium album; 25 gai/ha): 55%
- % activity, solo application topramezone (Chenopodium album; 50 gai/ha): 73%

Structure (SMILES): COCC(C)N(C(=O)CCl)c1c(C)csc1C (stereo not shown) [DMTA, Dimethenamid]
- inhibition at 175 g/ha (Amaranthus palmeri; 175 gai/ha, read-out: % activity, solo DMTA): 10%
- inhibition at 350 g/ha (Amaranthus palmeri; 350 gai/ha, read-out: % activity, solo DMTA): 20%
- inhibition at 175 g/ha (Amaranthus retroflexus; Amaranthus retroflexus, post-emergence, 480 h, 175 gai/ha, 20 DAT, read-out: % activity, solo DMTA): 35%
- inhibition at 350 g/ha (Amaranthus retroflexus; Amaranthus retroflexus, post-emergence, 480 h, 350 gai/ha, 20 DAT, read-out: % activity, solo DMTA): 45%
- inhibition at 175 g/ha (Abutilon theoprasti; Abutilon, post-emergence, 480 h, 175 gai/ha, 20 DAT, read-out: % activity, solo DMTA): 0%
- inhibition at 350 g/ha (Abutilon theoprasti; Abutilon, post-emergence, 480 h, 350 gai/ha, 20 DAT, read-out: % activity, solo DMTA): 0%
- % activity, solo DMTA (Kochia scoparia; 350 gai/ha, 20 DAT): 5%
- inhibition at 175 g/ha (Kochia scoparia; Bassia scoparia, post-emergence, 480 h, 175 gai/ha, 20 DAT, read-out: % activity, solo DMTA): 0%
- inhibition at 350 g/ha (Chenopodium album; Chenopodium album, post-emergence, 480 h, 350 gai/ha, 20 DAT, read-out: % activity, solo DMTA): 28%
